Earlier results in the CATMoS acute toxicity set (Mansouri et al. 2021).
Several values for one entry are separate records, joined by “and”; a condition that tells them apart may be missing. Equal entries are not always repeated.

Experiment: rat acute oral toxicity
Conditions: in vivo

SMILES | LD50
CN1CCCCC1CCN1c2ccccc2Sc2ccc(S(C)=O)cc21 (configuration not stated) | 644 mg/kg
CC(C)OC(=O)c1c[n+](C)c2n(c1=O)C(C)CCC2 (configuration not stated) | 1200 mg/kg
CC(=O)O | 3250 mg/kg
CCC12CCC3c4ccc(O)cc4CCC3C1CC(O)C2O (configuration not stated) | 5010 mg/kg
O=[N+]([O-])c1cc(Cl)c2nc(C(F)(F)F)[nH]c2c1 | 9.87 mg/kg
Cc1c(Cl)cc(-c2ccc(O)nn2)cc1Cl | 12000 mg/kg
CCCCCCCCSC(=O)Oc1cc(Cl)nnc1-c1ccccc1 | 1970 mg/kg
Nc1ccc(Cl)cc1Cl | 1600 mg/kg
OCC[N+](CCO)(CCO)CCO | 2250 mg/kg
C=CCc1ccc(OC(=O)NC)c(OC)c1 | 250 mg/kg
CCOP(=S)(OCC)SCc1ccc([N+](=O)[O-])cc1 | 100 mg/kg
COP(N)(=S)Oc1ccc(C(C)(C)C)cc1Cl (configuration not stated) | 820 mg/kg
CCCCCOc1ccc(C2SC(=O)NC2=O)cc1OCC (configuration not stated) | 4330 mg/kg
Cc1ccn(C(N)=O)n1 | 830 mg/kg and 1100 mg/kg
CCC(C)(O)Cc1ccccc1 (configuration not stated) | 4000 mg/kg
Nc1ccc(F)c(F)c1F | 699 mg/kg
O=P(O)(O)CCCl | 2200 mg/kg
CC(C)=Cc1ccc(C(C)C(=O)O)cc1 (configuration not stated) | 1300 mg/kg
C[N+](C)(C)CCOC(N)=O | 40 mg/kg
Nc1ccc(Cl)cc1[N+](=O)[O-] | 400 mg/kg
COc1ccc(Cl)cc1N/C(=N/C1CCCCC1)c1ccccc1 | 625 mg/kg
CN(C)c1ccc(Cn2cnc3c2c(=O)n(C)c(=O)n3C)cc1 | 1100 mg/kg
NCC(O)CO (configuration not stated) | 7500 mg/kg
CCCOP(=O)(SCCC)SCCC | 129 mg/kg
Oc1cc(Cl)c(Cl)c(Cl)c1-c1c(Cl)c(Cl)c(Cl)c(Cl)c1OCl | 360 mg/kg

SMILES | LD50
N#Cc1ccc([N+](=O)[O-])cc1 | 30 mg/kg
CCN(CC)CCOc1ccc2nc(N(C)C)sc2c1 | 880 mg/kg
COc1cc2c(cc1OC)C1CC(=O)C(CCC#N)CN1CC2 (configuration not stated) | 620 mg/kg
CC(=O)C(C)(C)C | 610 mg/kg
CCCCN(CCCC)S(=O)(=O)c1ccc(Cl)cc1 | 500 mg/kg
Cc1cc(C(C)(C)C)c(OB(OC(C)C)OC(C)C)c(C(C)(C)C)c1 | 5200 mg/kg
CC(C)(C)S | 4730 mg/kg
Oc1ccc2nc(C(F)(F)F)[nH]c2c1 | 41 mg/kg
CCCCOC(=O)C1CC1OCCCC (configuration not stated) | 24 mg/kg
Nc1ccc([N+](=O)[O-])c(Cl)n1 | 1780 mg/kg
CC(C=O)Cc1ccc(C(C)(C)C)cc1 (configuration not stated) | 1390 mg/kg
O=C(O)c1nn(Cc2ccc(Cl)cc2)c2ccccc12 | 1140 mg/kg
CC1COC(c2ccccc2)O1 (configuration not stated) | 3000 mg/kg
CC(C(=O)O)c1ccc2c(c1)OCc1cc(Cl)ccc1C2=O (configuration not stated) | 12 mg/kg
COP(=S)(OC)Sc1ccc(Cl)cc1 | 500 mg/kg
CCCCCCCCc1ccc(C(=O)CCN2CCCCC2)cc1 | 417 mg/kg
CN(C)S(=O)(=O)c1c(Cl)c(Cl)c(Cl)c2[nH]c(C(F)(F)F)nc12 | 4.77 mg/kg
CCCCOC(=O)c1ccccc1C(=O)OCc1ccccc1 | 2330 mg/kg
CC1=C[C@H]2O[C@@H]3[C@H](O)[C@@H](O)[C@](C)([C@@]2(CO)[C@H](O)C1=O)[C@]31CO1 | 19.5 mg/kg
CCCC(=O)OCN(C)N=O | 800 mg/kg
Cc1ccc(C(=O)c2cccc3c2CCC3C(=O)O)cc1 (configuration not stated) | 244 mg/kg
Nc1ccc2c(S(=O)(=O)O)cccc2c1S(=O)(=O)O | 5430 mg/kg
CC(C)(C)C1CCC(NCCC(c2ccccc2)c2ccccc2)CC1 (configuration not stated) | 2550 mg/kg
COc1ccc(OC)c(NC(=O)CNC(=O)Cc2ccc(C(=O)c3ccc(C)cc3)n2C)c1 | 1470 mg/kg
CN1CCC(=C2c3ccccc3CC(=O)c3sccc32)CC1 | 360 mg/kg

SMILES | LD50
C=CC(=C)Cl | 450 mg/kg
CCC(C(=O)O)c1ccc(CC(C)C)cc1 (configuration not stated) | 1600 mg/kg
C=Cc1ccc(Cl)cc1 | 5200 mg/kg
O=[N+]([O-])c1ccc([C@@H](O)[C@@H]2COC(C(Cl)Cl)=N2)cc1 | 6000 mg/kg
CCCCOc1ccc(OCC(=O)N(CCN(CC)CC)c2cc(OCC)ccc2OCC)cc1 | 2400 mg/kg
CC1OC1C1CCC2(C)OC2C1 (configuration not stated) | 5630 mg/kg
C=CC=CC=CCCCCC | 7560 mg/kg
C[Se]C | 2100 mg/kg
CCOC(=O)Cc1cccc2ccccc12 | 3580 mg/kg
CCOP(=S)(OCC)Oc1cnn(C)c(=O)c1OC | 2.5 mg/kg
C/C=C\COCN(C(=O)CCl)c1c(CC)cccc1CC | 1630 mg/kg
COc1ccc2c(c1)N(CCC1CCCCN1C)c1ccccc1S2 (configuration not stated) | 1130 mg/kg
Cc1ccc(C(C)C)cc1 | 4750 mg/kg
CCC(=O)Nc1ncc(Cl)s1 | 316 mg/kg
CCCC(C)=NO | 1130 mg/kg
CNN | 58 mg/kg
COc1cc(OC)n2nc(N)nc2n1 | 1030 mg/kg
O=C(C(F)(F)Cl)C(F)(Cl)Cl | 277 mg/kg
Cc1ccccc1-n1c(C)nc2ccccc2c1=O | 185 mg/kg
O=C(O)CCSCCC(=O)O | 3000 mg/kg
CCc1cnc(C(=O)O)c(C(=O)O)c1 | 3350 mg/kg
O=[N+]([O-])c1cc2nc(C(F)(F)F)[nH]c2cc1[N+](=O)[O-] | 15.2 mg/kg
CC(CN1C(=O)N(CC2CO2)C(C)(C)C1=O)OCC1CO1 (configuration not stated) | 1800 mg/kg
CC(C)(CCl)c1cc(Cl)nnc1Cl | 1000 mg/kg
N=C(N)NCCN1CCCCCCC1 | 1050 mg/kg

SMILES | LD50
O=[N+]([O-])c1cc([N+](=O)[O-])c(Nc2c(Br)cc(Br)cc2Br)c(C(F)(F)F)c1 | 4.43 mg/kg
CC(=O)CC(c1ccc([N+](=O)[O-])cc1)c1c(O)c2ccccc2oc1=O (configuration not stated) | 513 mg/kg
COc1c(OC)c(Cl)c2[nH]c(C(F)(F)F)nc2c1Cl | 100 mg/kg
CCSC(C)C1(CC)C(=O)NC(=S)NC1=O (configuration not stated) | 772 mg/kg
FC(F)(F)c1nc2ccc(I)cc2[nH]1 | 96 mg/kg
CCOc1cc2c(cc1OCC)C1CC(=O)C(CCC#N)CN1CC2 (configuration not stated) | 780 mg/kg
C#CCOc1cccc(OC(=O)NC)c1 | 150 mg/kg
Brc1cnc[nH]1 | 250 mg/kg
CCc1ccc(C)[n+](C(C)CCC(C)(C)CC(C)(C)C)c1 (configuration not stated) | 540 mg/kg
CC(=O)OCC(C)c1ccccc1 (configuration not stated) | 4300 mg/kg
C=CC(=O)N(CC)CC | 1420 mg/kg
CCOP(=O)(OCC)OC(C)=CC(=O)OC(C)c1ccccc1 (configuration not stated) | 65 mg/kg
O=C1CN(N=Cc2ccc(-c3ccc([N+](=O)[O-])cc3)o2)C(=O)N1 | 7430 mg/kg
c1ccc(-c2nnco2)cc1 | 440 mg/kg
C[Si](C)(C)CCC(=O)O | 3000 mg/kg
C=C(/C=C/C)C1=C(C)CCCC1(C)C | 2920 mg/kg
Cc1cc(Cl)ccc1OCC(=O)Nc1ccccc1 | 4500 mg/kg
CNC(=O)Oc1cc(C(C)C)ccc1C | 250 mg/kg
CCOc1ccc(N2C(=O)C=CC2=O)cc1 | 630 mg/kg
N=c1ccn(O)cc1 | 75 mg/kg
Cc1ncc(CSCc2cnc(C)c(O)c2CO)c(CO)c1O | 7500 mg/kg
Nc1ncnc2c1ccn2C1OC(CO)C(O)C1O (configuration not stated) | 16 mg/kg
Cc1nn(C)c2c1NCc1ccccc1O2 | 1360 mg/kg
O=c1ccc(O)n[nH]1 | 3900 mg/kg
CCCCCOC(CBr)c1ccc(C(C)C)cc1 (configuration not stated) | 250 mg/kg

SMILES | LD50
CCOC(=O)C1=CN(C(=O)c2ccccc2)C2CCCC(C)N2C1=O (configuration not stated) | 1640 mg/kg
O=C(Cn1ccnc1)c1ccc2c(c1)Cc1ccccc1-2 | 4550 mg/kg
CCCOP(=S)(CCl)Sc1ccc(Cl)cc1 (configuration not stated) | 80 mg/kg
Cc1ncc2cscc2c1O | 1500 mg/kg
C#CCN1C(=O)CN=C(c2ccccc2)c2cc(Cl)ccc21 | 5820 mg/kg
Cc1ccccc1C(O)(c1ccccc1)C(C)CN(C)C (configuration not stated) | 185 mg/kg
Cc1ccc(N)cc1Cl | 655 mg/kg
COc1ccc2oc(N)nc2c1 | 1000 mg/kg
O=C1CCCCCCCCCCCN1 | 2330 mg/kg
Cc1nccnc1C | 613 mg/kg
N#CC(F)(F)C(F)(F)C(F)(F)C#N | 2600 mg/kg
N#CCCOCCOCCO | 13400 mg/kg
CN1CCN(CCCN2c3ccccc3Sc3ccccc32)CC1 | 1380 mg/kg and 500 mg/kg
O=C(COc1ccc(Cc2ccc(Cl)cc2)cc1)OCc1cccnc1 | 2700 mg/kg
CC(=O)C(/N=N/c1ccc(-c2ccc(/N=N/C(C(C)=O)C(=O)Nc3ccccc3)c(Cl)c2)cc1Cl)C(=O)Nc1ccccc1 (configuration not stated) | 2230 mg/kg
COP(=S)(OC)Oc1ccc([N+](=O)[O-])c(SC(C)C)c1 | 1140 mg/kg
CCCCC(=O)CC | 2760 mg/kg
Clc1ccc(Sc2cc(Cl)c(Cl)cc2Cl)cc1 | 3960 mg/kg
COC(=O)C1CCCCC1 | 3880 mg/kg
CCN(CC)C(=O)c1cc(=O)c2ccccc2o1 | 4000 mg/kg
CC(=O)OC(C)CC(C)C (configuration not stated) | 6160 mg/kg
CC(OC(C)c1ccccc1)c1ccccc1 (configuration not stated) | 9800 mg/kg
CCC1(CC)Oc2cccc(OC(=O)N(C)C(C)=O)c2O1 | 375 mg/kg
CCOC(C1=NCC(C)(C)CN1)c1cccc2ccccc12 (configuration not stated) | 55 mg/kg
O=C(OCC(Br)(Br)Br)c1ccco1 | 1500 mg/kg

SMILES | LD50
O=C=Nc1ccc(Cc2ccc(N=C=O)cc2N=C=O)cc1 | 20000 mg/kg
O=C(O)Cc1csc(-c2ccc(Cl)cc2)n1 | 850 mg/kg
CCCC(=O)OC1CCC(N2CCCCC2)CC1 (configuration not stated) | 1910 mg/kg
COP(=S)(OC)SCC(N)=O | 925 mg/kg
C[C@]12C=CC(=O)C=C1CC[C@@H]1[C@@H]2[C@@H](O)C[C@@]2(C)[C@H]1CC[C@]2(O)C(=O)COC(=O)CCCc1ccc(N(CCCl)CCCl)cc1 | 530 mg/kg
CC(C)COC(=O)CCc1ccco1 | 1950 mg/kg
CCCCCCCCCCCCCCCC(=O)OCC(=O)[C@@]1(O)[C@H](C)C[C@H]2[C@@H]3CCC4=CC(=O)C=C[C@]4(C)[C@@]3(F)[C@@H](O)C[C@@]21C | 315 mg/kg
C1=CC=CCC=C1 | 57 mg/kg
CSc1ccc(O)cc1C | 3400 mg/kg
CCOc1ccc2c(OS(=O)(=O)O)c(-c3sc4cc(OCC)ccc4c3OS(=O)(=O)O)sc2c1 | 6700 mg/kg
CSCc1cnc(C)c(O)c1CO | 4300 mg/kg
c1ccc(C2CN3CCSC3=N2)cc1 (configuration not stated) | 180 mg/kg and 480 mg/kg
O=[N+]([O-])c1ccc(Nc2ccc(O)cc2)c([N+](=O)[O-])c1 | 15600 mg/kg
CC(=O)OCC(COc1ccccc1)OC(C)=O (configuration not stated) | 5250 mg/kg
O=[N+]([O-])c1cc(Cl)cc(-c2cc(Cl)cc([N+](=O)[O-])c2O)c1O | 10 mg/kg
Nc1c(/N=N/c2ccc([N+](=O)[O-])cc2)c(S(=O)(=O)O)cc2cc(S(=O)(=O)O)c(/N=N/c3ccc(-c4ccc(/N=N/c5ccc(O)cc5)cc4)cc3)c(O)c12 | 14700 mg/kg
c1ccc2c(C(CCN3CCOCC3)CCN3CCOCC3)cccc2c1 | 708 mg/kg
CC(=O)c1c(=O)cc(C)oc1=O | 706 mg/kg
CNCCC#N | 2260 mg/kg
CCCN(CCC)CCCCCCCCNC(=O)Oc1ccc2c(c1)[C@]1(C)CCN(C)[C@@H]1N2C | 18.3 mg/kg
CCN1CN1CC (configuration not stated) | 4000 mg/kg
C=CCC(CC=C)C(=O)O | 570 mg/kg
